Experimental data reported in patent US12171801B2, “Compositions and related methods for controlling vector-borne diseases” (priority 2017, dated 2024).
Entries after “also recorded” stand apart in the source; their conditions may differ.

How the values were obtained:
Escherichia coli DH5a = test: Antibiotic coating and penetration of corn kernels (E. coli growth on LB plates); type: cell-based; details: kernels soaked in 2.5 or 0.25 mg/ml
[1] = test system: Sitophilus primary endosymbiont (SPE, Candidatus Sodalis pierantonius); test: Sitophilus primary endosymbiont (SPE) level by qPCR in weevils; type: in vivo, Sitophilus zeamais; details: for SPE amount, water-treated weevils versus treated (F0): 18 days of treatment
Description: Sitophilus maize weevils (Sitophilus zeamais) were reared on organic corn at 27.5° C. and 70% relative humidity. Prior to being used for weevil rearing, corn was frozen for 7 days and then tempered to 10% humidity with sterile water. […] Ciprofloxacin (Sigma) stock solutions were made at 25 mg/ml in 0.1 N HCl, sterilized by passing through a 0.22 μm syringe filter, and stored at −20° C. For treatments, the appropriate amount of stock solution was diluted in sterile water.
(§1) Weevil survival was monitored daily for 18 days, after which DNA was extracted from the remaining weevils in each group. Briefly, the weevil body was surface sterilized by dipping the weevil into a 6% bleach solution for approximately 5 seconds. Weevils were then rinsed in sterile water and DNA was extracted from each individual aphid using a DNA extraction kit (Qiagen, DNeasy kit) according to manufacturer's instructions. […]; SEQ ID NO: 243). […]; SEQ ID NO: 245) (Login et al., 2011). qPCR was performed using a qPCR amplification ramp of 1.6 degrees C./s and the following conditions: 1) 95° C. for 10 minutes, 2) 95° C. for 15 seconds, 3) 57° C. for 30 seconds, 4) repeat steps 2-3 40×, 5) 95° C. for 15 seconds, 6) 55° C. for 1 minute, 7) ramp change to 0.15 degrees C./s, 8) 95° C. for 1 second. qPCR data was analyzed using analytic (Thermo Fisher Scientific, QuantStudio Design and Analysis) software.

Sitophilus zeamais [2] = test: Weevil survival; type: in vivo; details: 250 μg/ml or 2.5 mg/ml, 18 days
Excerpt: as §1

Sitophilus zeamais [3] = test: Development of F1 weevils in dissected corn kernels; type: in vivo; details: 250 ug/ml and 2.5 mg/ml
Sitophilus zeamais [4] = test: Emergence of F1 weevils (fecundity); details: 2.5 mg/ml, till day 43

O=C(O)c1cn(C2CC2)c2cc(N3CCNCC3)c(F)cc2c1=O [ciprofloxacin]
E. coli growth on plates with entire soaked corn kernels (Escherichia coli DH5a): inhibition of bacterial growth; also recorded: no bacteria grew
SPE amount, water-treated weevils versus treated (F0) ([1]; 250 ug/ml): approximately 4 fold higher
SPE amount, water-treated weevils versus treated (F0) ([1]; 2.5 mg/ml): ~8 fold higher
SPE level, water-treated F1 weevils versus treated ([1]; 2.5 mg/ml, F1 weevils dissected from corn kernels): approximately 4 fold higher
weevil survival (Sitophilus zeamais [2]): all weevils remained alive
development of F1 weevils (Sitophilus zeamais [3]): delay in development
emerged F1 offspring (Sitophilus zeamais [4]): much less offspring
